In US20130039857A1, “METHODS OF SUPPRESSING CANCER, INCREASING WEIGHT LOSS AND/OR INCREASING INSULIN SENSITIVITY” (priority 2010, published 2013):

Legend:
Fyn knockout mice = assay: Whole-body indirect calorimetry and body mass, Fyn knockout mice; format: in vivo, mouse
Text: (§1) Eight- to ten-week-old male C57BL6/J, pp59^fyn null mice and their controls were obtained from The Jackson Laboratory (Bar Harbor, Me.) and housed in a facility equipped with a 12 hr light/dark cycle. Animals were fed ad libitum a standard chow diet (Research Diets, New Brunswick, N. J.) containing 75.9% (Kcal) carbohydrates, 14.7% protein, and 9.4% fat. All studies were approved by and performed in compliance with the guidelines of the Yeshiva University Institutional Animal Care and Use Committee (IACUC).
(§2) Oxygen and carbon dioxide consumption were simultaneously determined by Oxymax open-circuit indirect calorimetry system (eight-cage system) (Columbus Instruments). Animals were allowed to acclimatize for two complete light and dark cycles (48 hr), and SU6656 (2-oxo-3-(4,5,6,7-tetrahydro-1H-indol-2-ylmethylene)-2,3-dihydro-1H-indole-5-sulfonic acid dimethylamide) injections were performed at the beginning of the light cycle the following day. Measurements were subsequently taken 12 hr following the injection. Data were analyzed as the average of 1 hr measurements for each mouse. Instrument settings were as follows: gas flow rate, 0.6 1/min; sample flow rate, 0.5 1/min; settle time, 120 s; measure time, 60 s.
To address this issue, the metabolic effect of SU6656 on wild type versus Fyn knockout mice was investigated. […]

[1] = Total body mass and magnetic resonance imaging (fat and lean mass), wild-type mice; format: in vivo, mouse
Procedure: Total body mass (g) was recorded before (T=0) and 12 hr (T=12 hr) after the SU6656 injection. To determine fat and lean mass, animals were placed in a clear plastic holder without anesthesia or sedation and inserted into the EchoMRI-3-in-1™ System from Echo Medical Systems (Houston, Tex., USA). Total body fat and lean mass were measured before (T=0) and after (T=12 hr) after the injection.
As mice generally consume 80% of their calories during the dark cycle and have a limited food intake during the light cycle, they undergo a diurnal pattern of weight gain and loss as shown by the decreased body mass at T=12 hr in the vehicle-treated mice. […] To determine whether the lowered RQ in the mice treated with SU6656 was directly due to increased skeletal muscle fatty acid oxidation, red soleus and white gastrocnemius muscles were isolated 3 hr following the vehicle or SU6656 injection and incubated with ^14C-palmitate. The oxidation of ^14C-palmitate to ^14CO2 was increased 25% and 33%, respectively, in the soleus and the gastrocnemius of the SU6656-treated mice relative to vehicle treated controls (FIGS. 3A and 3B). The SU6656-stimulated increase in fatty acid oxidation occurred concomitantly, with an approximate 3-fold increased AMPK α subunit T172 phosphorylation and increased ACC S79 (ACC1) and S221 (ACC2) phosphorylation levels (FIGS. 3C and 3D).

LKB1 = assay: Endogenous LKB1 immunofluorescence in skeletal muscle in vivo; design: species or system mouse; settings: wild-type mice treated with SU6656
[2] = test system: ACC S79 (ACC1) and S221 (ACC2) phosphorylation; assay: Western blot of phospho-ACC in white gastrocnemius; format: in vivo, mouse; settings: SU6656 4 mg/kg, 3 hr after injection, vs vehicle
Procedure: (§3) Animals were injected with vehicle or SU6656 (4 mg/kg) at the beginning of the light cycle. They were anesthetized and sacrificed by cervical dislocation 3 hr after the injection. Tissues were rapidly freeze clamped in liquid nitrogen and stored at […]. Protein preparation and blotting were performed as described below. Tissues were ground in liquid nitrogen and homogenized in a buffer containing 50 mM Tris (pH 7.4), 1% glycerol, and 1% Triton X-100 supplemented with protease inhibitor (Complete Mini, Roche Pharmaceuticals, Nutley, N. J.). Homogenates were centrifuged for 30 min at 14,000 rpm at 4° C., and supernatants were collected. Protein concentration was determined with the BCA™ Protein Assay (Thermo Scientific, Rockford, Ill.).
(§4) Protein samples (40 μg) were separated on 8% or 10% reducing polyacrylamide gels and transferred onto Immobilon-P polyvinylidene difluoride membranes. […] Alternatively, immunoblots were incubated with IRDye800CW goat antimouse (H+L) or IRDye680 goat anti-rabbit (H+L) secondary antibodies, and signal was detected with the Odyssey® Infrared Imaging System (Li-COR Biotechnology, Lincoln, Nebr.).

[3] = test system: red soleus and white gastrocnemius muscles; assay: Fatty acid oxidation in isolated muscles (14C-palmitate to 14CO2); format: in vivo, mouse; settings: relative to vehicle treated controls
Procedure: Animals received a single intraperitoneal injection of SU6656 or vehicle in the morning. Mice were sacrificed by cervical dislocation 3 hr after the injection. Skeletal muscles (red soleus and white gastrocnemius) were rapidly removed and preincubated for 10 min in oxygenated (95% O2, 5% CO2) Earle's solution (Invitrogen, Carlsbad, Calif.) supplemented with 5 mMD-glucose, 250 μM palmitate, and 0.5% BSA plus either 10 μM SU6656 or an equal volume of DMSO. Tissues were incubated for 45 min in the same buffer containing […] palmitate containing 1 μCi/ml [1-^14C] palmitate tracer (Amersham, Piscataway, N. J.) bound to 0.5% BSA. Incubations were carried out under an atmosphere of 95% O2/5% CO2 at 30° C. in glass vials (Kontes, Vineland, N.J.) equipped with a center well filled with 200 μl of 2N NaOH (trapping agent). At the end of the incubation, perchloric acid was added through the cap to a concentration of […], and vials were incubated for 3 hr at 30° C. with moderate shaking. The ^14CO2 produced was determined by scintillation counting of NaOH using the UniScintBD scintillation liquid (National Diagnostics, Atlanta, Ga.).
As mice generally consume 80% of their calories during the dark cycle and have a limited food intake during the light cycle, they undergo a diurnal pattern of weight gain and loss as shown by the decreased body mass at T=12 hr in the vehicle-treated mice. […]

[4] = test system: LKB1 subcellular localization in C2C12 muscle cell line; assay: GFP-LKB1 subcellular localization in C2C12 myotubes; format: cell-based; design: dose or concentration left out as unconfirmed; settings: C2C12 myotubes transfected with pEGFP-LKB1
Procedure: FIGS. 4A-4F. Fyn Kinase Activity Regulates LKB1 Subcellular Distribution. (4A) C2C12 myotubes were transfected with pEGFP-LKB1 and incubated with vehicle or SU6656 ([…]) for 2 hr. Cells were fixed and mounted with proQ diamond with DAPI solution. (4B) Shown is percentage of cells with pEGFPLKB1 signal detected in the cytoplasm. (4C) C2C12 myotubes were cotransfected with pEGFP-LKB1 and pcDNA3-Fyn-KD or pcDNA3-Fyn-CA. Cells were fixed and incubated with the mouse Fyn monoclonal antibody. Immunofluorescence was performed using the Alexa Fluor 594 Anti-mouse IgG. (4D) Percentage of C2C12 cells with pEGFP-LKB1 signal detected in the cytoplasm. Data are representative of n=5 experiments. (4E) Fully differentiated 3T3L1 adipocytes were cotransfected with pcDNA3-LKB1 and pcDNA3-Fyn-KD or pcDNA3-Fyn-CA. […] (4F) Percentage of 3T3L1 cells with LKB1 signal detected in the cytoplasm. […]
The ratio of cytosolic and nuclear LKB1 was quantified using the Image J software (National Institutes of Health). […]
C2C12 myotubes were cotransfected with 50 μg pEGFP-C2-LKB1 or pcDNA3-Flag-LKB1 or pcDNA3-Flag-LKB1 mutants and 200 μg of the indicated pcDNA3-Fyn constructs. […] Cells were imaged using a confocal fluorescence microscope (TCS SP5 confocal; Leica Microsystems). […]

Wild-type mice = assay: Whole-body indirect calorimetry, wild-type mice; format: in vivo, mouse
Text: as §1, §2
Loss of Fyn kinase protein in the conventional Fyn knockout mice leads to increased lipid utilization and energy expenditure, particularly in the fasting/resting state (Bastie et al., 2007). To examine the effects of acute Fyn inhibition, the in vivo effects of the pharmacological selective Src family kinase inhibitor SU6656 was investigated. Wild-type mice were placed into metabolic chambers and allowed to acclimatize for 48 hr. Intraperitoneal injection of SU6656 or vehicle was performed at the beginning of the light cycle (fasting/resting state), and the respiratory quotient (RQ), oxygen consumption (VO2), energy expenditure (EE), and physical activity were monitored for the following 12 hr. […] Oxygen consumption and energy expenditure were similar in both groups before the injection and were decreased during the light period as the animals were resting with reduced basal metabolism.

Fyn kinase = Fyn kinase (Homo sapiens, UniProt P06241); design: dose or concentration left out as unconfirmed; settings: cited from earlier work
[5] = test system: AMPK α subunit T172 phosphorylation; assay: Western blot of phospho-T172 AMPK in white gastrocnemius; format: in vivo, mouse; settings: SU6656 4 mg/kg, 3 hr after injection, vs vehicle
Procedure: as §3, §4

[6] = SU6656 4 mg/kg intraperitoneal, light period, 12 hr following injection

Sequence of Fyn kinase (P06241 1-534 isoform P06241-2): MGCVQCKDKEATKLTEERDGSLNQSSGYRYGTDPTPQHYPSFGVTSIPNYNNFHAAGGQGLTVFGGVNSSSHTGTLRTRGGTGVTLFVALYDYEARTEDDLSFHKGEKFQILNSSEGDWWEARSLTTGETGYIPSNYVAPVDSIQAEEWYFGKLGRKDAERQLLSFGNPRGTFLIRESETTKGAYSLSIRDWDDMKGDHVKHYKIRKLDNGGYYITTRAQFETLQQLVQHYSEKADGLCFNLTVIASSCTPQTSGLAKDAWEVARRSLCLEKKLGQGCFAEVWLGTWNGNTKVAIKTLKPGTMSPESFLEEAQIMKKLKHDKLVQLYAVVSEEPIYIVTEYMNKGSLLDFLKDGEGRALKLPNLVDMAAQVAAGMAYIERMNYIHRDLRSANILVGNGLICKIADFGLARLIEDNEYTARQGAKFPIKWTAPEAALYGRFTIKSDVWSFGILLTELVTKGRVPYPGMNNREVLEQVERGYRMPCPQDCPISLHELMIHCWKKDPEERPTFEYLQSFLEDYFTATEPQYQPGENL

CN(C)S(=O)(=O)c1ccc2c(c1)C(=Cc1cc3c([nH]1)CCCC3)C(=O)N2 [SU6656, 2-oxo-3-(4,5,6,7-tetrahydro-1H-indol-2-ylmethylene)-2,3-dihydro-1H-indole-5-sulfonic acid dimethylamide]
body mass or physical activity in Fyn null mice (Fyn knockout mice; after SU6656 treatment): no alterations | rate of change or RQ level in Fyn knockout mice (Fyn knockout mice; three-month-old Fyn knockout mice, SU6656 vs vehicle): no significant effect | total weight loss greater than vehicle-treated group ([1]; 12 hr after SU6656 injection): 40% | fat mass ([1]; T=12 hr, SU6656-treated vs vehicle-injected control animals): significantly reduced | lean mass ([1]; T=12 hr, vehicle vs SU6656-injected mice): no significant difference | LKB1 signal in the cytoplasm of muscle cells (LKB1): increased LKB1 signal | ACC S79 (ACC1) and S221 (ACC2) phosphorylation levels [2]: increased | increase in oxidation of 14C-palmitate to 14CO2, soleus ([3]; red soleus isolated 3 hr after injection): 25% | increase in oxidation of 14C-palmitate to 14CO2, gastrocnemius ([3]; white gastrocnemius isolated 3 hr after injection): 33% | cells with redistribution of LKB1 into the cytoplasm [4]: approximately 65% | decrease of respiratory quotient (RQ) (Wild-type mice; SU6656 4 mg/kg intraperitoneal at beginning of light cycle, vs vehicle, particularly first 3 hr after injection): more pronounced | energy expenditure (EE) elevation vs vehicle (Wild-type mice; [6]): 14% | oxygen consumption (VO2) elevation vs vehicle (Wild-type mice; [6]): 14% | physical activity (Wild-type mice; SU6656 4 mg/kg, dark or light cycle): without any alteration | respiratory quotient (RQ), wild-type controls of Fyn knockout mice (Wild-type mice; three-month-old wild-type mice, SU6656 vs vehicle, 12 hr following injection): lower RQ | Fyn kinase activity (Fyn kinase): sufficient to inactivate | increased AMPK α subunit T172 phosphorylation [5]: ~3 fold
